Test results: PMC10353187, “Discovery of a new potent oxindole multi-kinase inhibitor among a series of designed 3-alkenyl-oxindoles with ancillary carbonic anhydrase inhibitory activity as antiproliferative agents” (BMC Chemistry, 2023)

Tests used:
Assay in all cases: Z'-LYTE kinase inhibition assay (SelectScreen)
Assay type in all cases: biochemical
PDGFRA (PDGFR alpha) = target: T1, PDGFRA (PDGFR alpha) (Homo sapiens, UniProt P16234)
T1 construct: purchased Thermo Fischer Scientific (SelectScreen service)
Description: (§1) To test the potential kinase inhibitory activity of compound 15c, initial single dose testing was performed at 10 μM on a panel of kinases and their inhibition % were determined.
(§2) The FGFR, VEGFR-2 and RET tyrosine kinase assays were carried out at Thermo Fischer Scientific, USA (www.thermofischer.com/selectscreen). (For further details see Additional file 1; S3: In vitro biological activity).
(§3) The FGFR, VEGFR-2 and RET tyrosine kinase assays were performed at Thermo Fischer Scientific, USA (www.thermofischer.com/selectscreen). The assay was performed to evaluate the inhibitory activity of the designed compound applying the Z'-LYTE biochemical assay employing a fluorescence-based, coupled-enzyme format based on the differential sensitivity of phosphorylate and non-phosphorylate peptides to the proteolytic cleavage. The peptide substrate is characterized with two fluorophores, one at each end, that make up a FRET pair ^9.
(§4) The Z´-LYTE biochemical assay employs a fluorescence-based, coupled-enzyme format and is based on the differential sensitivity of phosphorylated and non-phosphorylated peptides to proteolytic cleavage. The peptide substrate is labeled with two fluorophores—one at each end—that make up a FRET pair. In the primary reaction, the kinase transfers the gamma-phosphate of ATP to a single tyrosine, serine or threonine residue in a synthetic FRET-peptide. In the secondary reaction, a site-specific protease recognizes and cleaves non-phosphorylated FRET-peptides. Phosphorylation of FRET-peptides suppresses cleavage by the Development Reagent. Cleavage disrupts FRET between the donor (i.e., coumarin) and acceptor (i.e., fluorescein) fluorophores on the FRET-peptide, whereas uncleaved, phosphorylated FRET-peptides maintain FRET. A ratiometric method, which calculates the ratio (the Emission Ratio) of donor emission to acceptor emission after excitation of the donor fluorophore at 400 nm, is used to quantitate reaction progress, as shown in the equation below. A significant benefit of this ratiometric method for quantitating reaction progress is the elimination of wellto-well variations in FRET-peptide concentration and signal intensities. […]. Both cleaved and uncleaved FRET-peptides contribute to the fluorescence signals and therefore to the Emission Ratio. The extent of phosphorylation of the FRET-peptide can be calculated from the Emission Ratio. The Emission Ratio will remain low if the FRET-peptide is phosphorylated (i.e., no kinase inhibition) and will be high if the FRET-peptide is non-phosphorylated (i.e., kinase inhibition).
(§5) Test Compounds the Test Compounds are screened in 1% DMSO (final) in the well. For 10 point titrations, 3-fold serial dilutions are conducted from the starting concentration of the customer’s choosing. Peptide/Kinase Mixtures All Peptide/Kinase Mixtures are diluted to a 2X working concentration in the appropriate Kinase Buffer (see section Kinase Specific Assay Conditions for a complete description). ATP Solution All ATP Solutions are diluted to a 4X working concentration in Kinase Buffer (50 mM HEPES pH 7.5, 0.01% BRIJ-35, 10 mM MgCl2, 1 mM EGTA). ATP Km apparent is previously determined using a Z´-LYTE assay.

VEGFR 1(FLT1) = target: T2, VEGFR 1(FLT1) (Homo sapiens, UniProt P17948)
T2 construct: purchased Thermo Fischer Scientific (SelectScreen service)
Description: as §1, §2, §3, §4, §5

BRAF = target: T3, BRAF (Homo sapiens, UniProt P15056)
T3 construct: purchased Thermo Fischer Scientific (SelectScreen service)
Description: as §1, §2, §3, §4, §5

c-Met = target: T4, c-Met (Homo sapiens, UniProt P08581)
T4 construct: purchased Thermo Fischer Scientific (SelectScreen service)
Description: as §1, §2, §3, §4, §5

Kit = target: T5, Kit (Homo sapiens, UniProt P10721)
T5 construct: purchased Thermo Fischer Scientific (SelectScreen service)
Description: as §1, §2, §3, §4, §5

FGFR 1 = target: T6, FGFR 1 (Homo sapiens, UniProt P11362)
T6 construct: purchased Thermo Fischer Scientific (SelectScreen service)
Description: as §1
(§6) […]. Additional file 1; S3: In vitro biological activity).
as §2, §3, §4, §5

RET = target: T7, RET (Homo sapiens, UniProt P07949)
T7 construct: purchased Thermo Fischer Scientific (SelectScreen service)
Description: as §1, §6, §2, §3, §4, §5

VEGFR 2(KDR) = target: T8, VEGFR 2(KDR) (Homo sapiens, UniProt P35968)
T8 construct: purchased Thermo Fischer Scientific (SelectScreen service)
Description: as §1, §6, §2, §3, §4, §5

[1] = five concentrations 10 nM–100 μM

T6 sequence (P11362 22-822): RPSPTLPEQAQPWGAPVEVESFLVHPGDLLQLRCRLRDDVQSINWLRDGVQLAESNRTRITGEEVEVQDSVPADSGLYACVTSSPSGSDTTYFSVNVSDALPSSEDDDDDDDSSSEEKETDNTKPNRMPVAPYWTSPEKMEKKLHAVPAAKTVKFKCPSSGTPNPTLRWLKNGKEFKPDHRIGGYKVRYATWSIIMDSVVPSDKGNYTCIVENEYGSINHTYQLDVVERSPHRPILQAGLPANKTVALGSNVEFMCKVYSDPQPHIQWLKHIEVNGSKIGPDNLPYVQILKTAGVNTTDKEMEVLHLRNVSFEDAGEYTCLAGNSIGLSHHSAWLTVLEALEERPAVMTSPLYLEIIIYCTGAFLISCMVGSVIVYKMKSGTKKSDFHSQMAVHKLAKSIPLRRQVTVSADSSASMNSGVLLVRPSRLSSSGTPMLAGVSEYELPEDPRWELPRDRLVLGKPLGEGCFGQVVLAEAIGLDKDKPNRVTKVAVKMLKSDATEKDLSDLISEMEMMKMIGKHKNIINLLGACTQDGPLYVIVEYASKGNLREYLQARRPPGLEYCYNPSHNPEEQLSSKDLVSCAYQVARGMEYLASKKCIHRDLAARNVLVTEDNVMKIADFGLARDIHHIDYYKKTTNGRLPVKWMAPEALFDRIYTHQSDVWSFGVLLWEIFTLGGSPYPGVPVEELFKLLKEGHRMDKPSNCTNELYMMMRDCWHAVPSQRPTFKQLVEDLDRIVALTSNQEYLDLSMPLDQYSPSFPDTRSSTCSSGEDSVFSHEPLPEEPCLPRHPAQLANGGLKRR
T8 sequence (P35968 20-1356): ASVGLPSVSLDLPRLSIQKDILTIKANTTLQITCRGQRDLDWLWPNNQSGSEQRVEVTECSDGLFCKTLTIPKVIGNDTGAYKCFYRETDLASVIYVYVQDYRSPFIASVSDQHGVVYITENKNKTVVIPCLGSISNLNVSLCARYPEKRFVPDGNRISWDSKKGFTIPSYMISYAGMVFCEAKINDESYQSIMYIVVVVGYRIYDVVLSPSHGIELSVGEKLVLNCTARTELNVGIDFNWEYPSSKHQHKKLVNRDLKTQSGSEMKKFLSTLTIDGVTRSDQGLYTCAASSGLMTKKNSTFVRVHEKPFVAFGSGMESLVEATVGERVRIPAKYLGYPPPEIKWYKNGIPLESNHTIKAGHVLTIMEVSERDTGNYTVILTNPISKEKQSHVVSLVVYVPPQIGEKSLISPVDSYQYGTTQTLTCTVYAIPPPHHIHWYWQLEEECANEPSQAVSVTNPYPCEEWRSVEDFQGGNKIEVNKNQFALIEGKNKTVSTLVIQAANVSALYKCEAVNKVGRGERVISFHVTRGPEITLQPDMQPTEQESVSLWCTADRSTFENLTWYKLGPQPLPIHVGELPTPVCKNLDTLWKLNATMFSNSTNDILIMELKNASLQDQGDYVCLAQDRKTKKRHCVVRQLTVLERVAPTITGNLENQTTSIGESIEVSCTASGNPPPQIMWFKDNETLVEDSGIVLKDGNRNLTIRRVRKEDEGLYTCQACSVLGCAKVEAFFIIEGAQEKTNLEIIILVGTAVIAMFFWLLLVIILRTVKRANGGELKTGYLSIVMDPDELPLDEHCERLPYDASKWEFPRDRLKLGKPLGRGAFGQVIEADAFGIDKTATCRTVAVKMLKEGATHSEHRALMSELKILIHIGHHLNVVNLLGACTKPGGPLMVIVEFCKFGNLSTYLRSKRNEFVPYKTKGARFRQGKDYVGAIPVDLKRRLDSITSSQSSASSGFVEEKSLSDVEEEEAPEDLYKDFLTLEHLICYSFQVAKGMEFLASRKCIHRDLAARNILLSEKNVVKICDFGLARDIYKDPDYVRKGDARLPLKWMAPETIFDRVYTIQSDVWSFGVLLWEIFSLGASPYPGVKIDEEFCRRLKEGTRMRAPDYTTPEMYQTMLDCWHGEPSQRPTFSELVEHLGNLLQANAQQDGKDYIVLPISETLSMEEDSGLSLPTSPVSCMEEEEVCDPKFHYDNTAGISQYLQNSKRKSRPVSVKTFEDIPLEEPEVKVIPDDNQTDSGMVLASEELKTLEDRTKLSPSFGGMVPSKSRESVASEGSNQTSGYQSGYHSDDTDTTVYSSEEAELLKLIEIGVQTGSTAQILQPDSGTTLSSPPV
T7 sequence (P07949 29-1114): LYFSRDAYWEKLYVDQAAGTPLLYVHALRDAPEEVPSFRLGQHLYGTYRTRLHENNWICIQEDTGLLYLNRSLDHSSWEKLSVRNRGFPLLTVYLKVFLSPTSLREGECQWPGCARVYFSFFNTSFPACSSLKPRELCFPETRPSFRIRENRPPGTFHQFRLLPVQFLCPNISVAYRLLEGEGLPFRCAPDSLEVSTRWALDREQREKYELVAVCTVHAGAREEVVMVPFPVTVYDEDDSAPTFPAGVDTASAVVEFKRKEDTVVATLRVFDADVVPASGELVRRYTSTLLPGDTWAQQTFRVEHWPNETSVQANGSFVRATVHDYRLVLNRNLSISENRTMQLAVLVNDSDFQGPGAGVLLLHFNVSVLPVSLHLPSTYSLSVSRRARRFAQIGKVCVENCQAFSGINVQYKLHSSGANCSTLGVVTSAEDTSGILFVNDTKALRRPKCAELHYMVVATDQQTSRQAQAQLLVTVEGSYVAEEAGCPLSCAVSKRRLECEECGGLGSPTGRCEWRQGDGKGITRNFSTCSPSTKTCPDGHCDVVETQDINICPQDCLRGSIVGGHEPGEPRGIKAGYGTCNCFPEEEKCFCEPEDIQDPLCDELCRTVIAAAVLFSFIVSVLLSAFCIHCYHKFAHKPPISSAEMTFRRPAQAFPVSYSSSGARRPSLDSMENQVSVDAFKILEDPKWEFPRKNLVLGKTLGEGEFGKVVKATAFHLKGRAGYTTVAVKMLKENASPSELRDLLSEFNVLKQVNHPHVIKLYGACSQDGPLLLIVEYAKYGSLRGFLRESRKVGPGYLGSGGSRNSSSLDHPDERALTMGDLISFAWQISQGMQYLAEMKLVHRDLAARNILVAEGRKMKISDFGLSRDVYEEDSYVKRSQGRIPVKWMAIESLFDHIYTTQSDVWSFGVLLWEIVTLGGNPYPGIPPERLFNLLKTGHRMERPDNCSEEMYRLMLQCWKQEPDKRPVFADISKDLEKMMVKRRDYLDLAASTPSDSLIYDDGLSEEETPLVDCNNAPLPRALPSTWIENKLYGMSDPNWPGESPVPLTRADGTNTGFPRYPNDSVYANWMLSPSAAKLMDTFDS
T1 sequence (P16234 24-1089): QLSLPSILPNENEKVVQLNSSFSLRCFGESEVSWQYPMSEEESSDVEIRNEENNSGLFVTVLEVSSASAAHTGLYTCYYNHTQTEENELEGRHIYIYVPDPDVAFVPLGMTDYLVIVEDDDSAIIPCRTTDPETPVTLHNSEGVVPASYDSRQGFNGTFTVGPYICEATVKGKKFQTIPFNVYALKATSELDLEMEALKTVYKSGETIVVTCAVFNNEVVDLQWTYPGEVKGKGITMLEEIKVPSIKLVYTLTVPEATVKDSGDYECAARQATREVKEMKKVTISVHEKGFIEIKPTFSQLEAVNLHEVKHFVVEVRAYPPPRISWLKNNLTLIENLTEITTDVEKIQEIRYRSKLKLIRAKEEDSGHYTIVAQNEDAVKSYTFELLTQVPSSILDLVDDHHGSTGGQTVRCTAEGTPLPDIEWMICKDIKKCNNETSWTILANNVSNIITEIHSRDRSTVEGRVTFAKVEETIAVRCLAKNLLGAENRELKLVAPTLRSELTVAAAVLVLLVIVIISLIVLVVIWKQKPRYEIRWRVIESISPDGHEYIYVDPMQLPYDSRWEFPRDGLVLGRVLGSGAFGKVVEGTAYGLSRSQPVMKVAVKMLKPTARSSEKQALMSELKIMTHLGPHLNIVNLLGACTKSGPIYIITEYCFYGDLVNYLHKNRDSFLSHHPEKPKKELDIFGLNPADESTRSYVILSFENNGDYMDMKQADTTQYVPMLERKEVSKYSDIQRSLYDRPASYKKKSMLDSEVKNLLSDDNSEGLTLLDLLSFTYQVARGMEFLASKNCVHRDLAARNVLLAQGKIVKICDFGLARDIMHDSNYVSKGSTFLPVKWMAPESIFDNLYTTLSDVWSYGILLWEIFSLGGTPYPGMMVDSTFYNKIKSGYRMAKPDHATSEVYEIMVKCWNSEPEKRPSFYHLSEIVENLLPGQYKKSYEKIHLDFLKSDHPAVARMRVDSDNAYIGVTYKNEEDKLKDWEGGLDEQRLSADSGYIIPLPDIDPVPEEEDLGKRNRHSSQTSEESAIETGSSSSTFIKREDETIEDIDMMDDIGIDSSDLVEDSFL
T3 sequence (P15056 whole entry): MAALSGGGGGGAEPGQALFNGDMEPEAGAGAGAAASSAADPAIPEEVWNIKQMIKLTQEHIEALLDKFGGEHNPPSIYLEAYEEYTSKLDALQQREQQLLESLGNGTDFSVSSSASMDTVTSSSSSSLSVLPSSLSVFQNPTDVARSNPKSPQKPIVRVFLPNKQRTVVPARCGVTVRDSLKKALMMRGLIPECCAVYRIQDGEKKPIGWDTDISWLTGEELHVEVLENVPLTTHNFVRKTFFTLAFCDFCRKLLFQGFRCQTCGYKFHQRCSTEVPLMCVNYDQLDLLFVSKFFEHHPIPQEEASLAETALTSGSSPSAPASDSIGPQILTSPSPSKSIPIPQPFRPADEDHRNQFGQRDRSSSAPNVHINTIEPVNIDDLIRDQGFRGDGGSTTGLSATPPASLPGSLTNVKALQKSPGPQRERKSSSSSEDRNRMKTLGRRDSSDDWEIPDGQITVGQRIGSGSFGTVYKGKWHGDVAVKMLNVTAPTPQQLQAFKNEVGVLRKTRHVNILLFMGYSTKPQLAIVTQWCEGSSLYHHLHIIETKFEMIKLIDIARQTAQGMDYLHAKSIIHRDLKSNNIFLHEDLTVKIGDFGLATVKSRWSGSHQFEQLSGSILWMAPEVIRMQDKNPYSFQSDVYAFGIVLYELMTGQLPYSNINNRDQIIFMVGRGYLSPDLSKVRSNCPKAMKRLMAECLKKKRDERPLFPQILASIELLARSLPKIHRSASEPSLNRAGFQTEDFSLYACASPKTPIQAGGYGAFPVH

SMILES: O=C(Nc1ccc(NC=C2C(=O)Nc3ccccc32)cc1)Nc1nccs1 [Compound 15c, 1-{4-[((2-Oxoindolin-3-ylidene)methyl)amino]phenyl}-3-(thiazol-2-yl)urea]
- inhibition at 10 µM (PDGFRA (PDGFR alpha)): 59%
- inhibition at 10 µM (VEGFR 1(FLT1)): 40%
- inhibition at 10 µM (BRAF): 69%
- inhibition at 10 µM (c-Met): 62%
- inhibition at 10 µM (Kit): 31%
- inhibition at 10 µM (FGFR 1; 10 uM): 74%
- IC50 (FGFR 1; [1]): 1290 nM
- inhibition at 10 µM (RET; 10 uM): 74%
- IC50 (RET; [1]): 1190 nM
- inhibition at 10 µM (VEGFR 2(KDR); 10 uM): 73%
- IC50 (VEGFR 2(KDR); [1]): 117 nM
